Results taken from patent US9796662B2 (priority 2010, dated 2017).

Row | Structure (SMILES) | Emulsion stability, mL separation, 1 h, Adjuvant [mL] | Emulsion stability, mL separation, 1 h, Anionic [mL] | Emulsion stability, mL separation, 24 h, Adjuvant [mL] | Emulsion stability, mL separation, 24 h, Anionic [mL] | Emulsion stability, mL separation, 1 h, Nonionic [mL] | Emulsion stability, mL separation, 24 h, Nonionic [mL]
1 | C[N+](C)(C)CCOC(=O)CCCCCCC/C=C/CCCCCCCC(=O)OCC[N+](C)(C)C [Mix-16, C18 diMEA DiQuat] | 0.25 | 0 | 0.25 | 0 | – | –
2 | C=CCCCCCCCC(=O)OCC[N+](C)(C)C [C10-7, C10 DMEA Ester Quat] | 0 | 0 | 0 | 0 | 0 | 0
3 | CC/C=C/CCCCCCCC(=O)OCC[N+](C)(C)C [C12-7, C12 DMEA Ester Quat] | 0 | 0 | 0 | 0 | 0 | 0
